Data as given in US20060035920A1, “Chk-1 inhibitors” (Millennium Pharmaceuticals, Inc., priority 2004, published 2006).

target: T1, Recombinant human Chk1 (GST-Chk1) (Homo sapiens, UniProt O14757); experiment: Chk1 DELFIA Kinase Assay; format: biochemical; details: GST-Chk1 in vitro kinase assay, bound given in μM
T1 construct: made in house; host or cells: insect cells (baculovirus, Bac-to-Bac system)
T1 sequence (O14757 1-476): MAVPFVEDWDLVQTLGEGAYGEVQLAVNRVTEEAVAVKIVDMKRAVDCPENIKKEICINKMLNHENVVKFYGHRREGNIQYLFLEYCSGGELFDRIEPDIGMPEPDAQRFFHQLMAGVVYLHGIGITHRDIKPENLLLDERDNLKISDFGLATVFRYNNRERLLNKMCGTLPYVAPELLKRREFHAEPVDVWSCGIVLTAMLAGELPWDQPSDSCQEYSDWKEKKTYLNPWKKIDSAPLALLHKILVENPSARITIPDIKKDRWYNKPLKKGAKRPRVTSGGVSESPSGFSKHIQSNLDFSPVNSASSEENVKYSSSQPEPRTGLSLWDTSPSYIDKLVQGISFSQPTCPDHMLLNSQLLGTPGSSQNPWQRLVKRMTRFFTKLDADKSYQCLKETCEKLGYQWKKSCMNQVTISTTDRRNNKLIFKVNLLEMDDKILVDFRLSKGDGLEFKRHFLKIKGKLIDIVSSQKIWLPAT
Experimental: Recombinant human Chk1 was expressed as a fusion protein with glutathione S-transferase at the amino-terminus (GST-Chk1) using standard baculovirus vectors and (Bac-to-Bac®) insect cell expression system purchased from GIBCO™ Invitrogen. Recombinant protein expressed in insect cells was purified using glutathione sepharose (Amersham Biotech) using standard procedures described by the manufacturer.
Chk1 DELFIA® Kinase Assay:
Assays (25 μL) utilized 2 nM GST-Chk1 containing 10 mM Tris, pH 7.5, 20% glycerol, 50 mM sodium chloride (NaCl), 0.01% Surfact-Amps® 20, 1 μM peptide stubstrate (Biotin-GLYRSPSMPEN-amide) (SEQ ID NO: 2), 01.% BSA, 2 mM DTT, 4% DMSO, 600 μM ATP, 10 mM MgCl2 and reacted for 50 minutes at room temperature. Reactions were terminated with 100 μL of Stop buffer containing 1% BSA, 10 mM Tris, pH 8.0, 150 mM NaCl, 100 mM EDTA. Stopped reactions (100 μL) were transferred to 96 well NeutrAvidin plates (Pierce) to capture the biotin-peptide substrate during a 30 minute room temperature incubation. Wells were washed and reacted with 100 μL PerkinElmer Wallac Assay Buffer containing 21.5 ng/ml anti-phospho-Ser216-Cdc25c rabbit polyclonal antibody from Cell Signaling Technology (Beverly, Mass.) and 292 ng/ml europium labeled anti-rabbit-IgG for 1 hour at room temperature. Wells were washed and europium released from the bound antibody by addition of Enhancement Solution (100 μL) (PerkinElmer Wallac) and detected using a Perkin Elmer Wallac Envison™ 2100 multilabel reader using standard manufacturer settings.

Row | IC50 [µM] | Structure (SMILES)
1 | < 1 | CCn1c(=O)c2c(C)[nH]nc2c2ccc(CCCN3CCCC3)cc21 [Compound I-42, 5-ethyl-3-methyl-7-(3-pyrrolidin-1-ylpropyl)-2,5-dihydro-4H-pyrazolo[4,3-c]quinolin-4-one]
2 | < 1 | CCn1c(=O)c2c(C)[nH]nc2c2cc(CCCN3CCCC3)ccc21 [Compound I-54, 5-ethyl-3-methyl-8-(3-pyrrolidin-1-ylpropyl)-2,5-dihydro-4H-pyrazolo[4,3-c]quinolin-4-one]

same assay, conditions: GST-Chk1 kinase assay, bound given in nM

Row | IC50 [µM] | Structure (SMILES)
3 | < 0.5 | CCn1c(=O)c2c(C)[nH]nc2c2cc(/C=C/CN(C(C)C)C(C)C)ccc21 [Compound I-44, 8-[(1E)-3-(diisopropylamino)prop-1-en-1-yl]-5-ethyl-3-methyl-2,5-dihydro-4H-pyrazolo[4,3-c]quinolin-4-one]
4 | < 0.5 | CCn1c(=O)c2c(C)[nH]nc2c2cc(C#CCN3[C@H](C)CC[C@@H]3C)ccc21 [Compound I-3, 8-{3-[(2R,5S)-2,5-dimethylpyrrolidin-1-yl]prop-1-yn-1-yl}-5-ethyl-3-methyl-2,5-dihydro-4H-pyrazolo[4,3-c]quinolin-4-one]
5 | < 0.5 | Cc1[nH]nc2c1c(=O)n(CCF)c1ccc(C#CCN3CCCC3)cc21 [Compound I-10, 5-(2-fluoroethyl)-3-methyl-8-(3-pyrrolidin-1-ylprop-1-yn-1-yl)-2,5-dihydro-4H-pyrazolo[4,3-c]quinolin-4-one]
6 | < 0.5 | CCn1c(=O)c2c(C)[nH]nc2c2cc(C#CCN3CCC3)ccc21 [Compound I-31, 8-(3-azetidin-1-ylprop-1-yn-1-yl)-5-ethyl-3-methyl-2,5-dihydro-4H-pyrazolo[4,3-c]quinolin-4-one]
7 | < 0.5 | CCN(CC)CC#Cc1ccc2c(c1)c1n[nH]c(C)c1c(=O)n2CC [Compound I-1, 8-[3-(diethylamino)prop-1-yn-1-yl]-5-ethyl-3-methyl-2,5-dihydro-4H-pyrazolo[4,3-c]quinolin-4-one]
8 | < 0.5 | CCn1c(=O)c2c(C)[nH]nc2c2cc(C#CCN(C)C)ccc21 [Compound I-11, 8-[3-(dimethylamino)prop-1-yn-1-yl]-5-ethyl-3-methyl-2,5-dihydro-4H-pyrazolo[4,3-c]quinolin-4-one]
9 | < 0.5 | Cc1[nH]nc2c1c(=O)n(C)c1ccc(C#CCN3CCCC3)cc21 [Compound I-12, 3,5-dimethyl-8-(3-pyrrolidin-1-ylprop-1-yn-1-yl)-2,5-dihydro-4H-pyrazolo[4,3-c]quinolin-4-one]
10 | < 0.5 | CCN(CC)Cc1ccc(-c2ccc3c(c2)c2n[nH]c(C)c2c(=O)n3CC)s1 [Compound I-46, 8-{5-[(diethylamino)methyl]-2-thienyl}-5-ethyl-3-methyl-2,5-dihydro-4H-pyrazolo[4,3-c]quinolin-4-one]
11 | < 0.5 | CCn1c(=O)c2c(C)[nH]nc2c2cc(C#CCN3[C@H](C)CC[C@H]3C)ccc21 (racemic) [Compound I-2, 8-{3-[(2S,5S)-2,5-dimethylpyrrolidin-1-yl]prop-1-yn-1-yl}-5-ethyl-3-methyl-2,5-dihydro-4H-pyrazolo[4,3-c]quinolin-4-one]
12 | < 0.5 | Cc1[nH]nc2c1c(=O)n(CCCO)c1ccc(C#CCN3CCCC3)cc21 [Compound I-18, 5-(3-hydroxypropyl)-3-methyl-8-(3-pyrrolidin-1-ylprop-1-yn-1-yl)-2,5-dihydro-4H-pyrazolo[4,3-c]quinolin-4-one]
13 | > 0.5 | CCn1c(=O)c2c(C)[nH]nc2c2ccc(CCCN3CCCC3)cc21 [Compound I-42, 5-ethyl-3-methyl-7-(3-pyrrolidin-1-ylpropyl)-2,5-dihydro-4H-pyrazolo[4,3-c]quinolin-4-one]
14 | < 0.5 | C#Cc1ccc2c(c1)c1n[nH]c(C)c1c(=O)n2C [Compound I-22, 8-ethynyl-3,5-dimethyl-2,5-dihydro-4H-pyrazolo[4,3-c]quinolin-4-one]
15 | < 0.5 | Cc1[nH]nc2c1c(=O)n(CCO)c1ccc(C#CCN3CCCC3)cc21 [Compound I-17, 5-(2-hydroxyethyl)-3-methyl-8-(3-pyrrolidin-1-ylprop-1-yn-1-yl)-2,5-dihydro-4H-pyrazolo[4,3-c]quinolin-4-one]
16 | > 0.5 | CCn1c(=O)c2c(C)[nH]nc2c2cc(CCCN3CCCC3)ccc21 [Compound I-54, 5-ethyl-3-methyl-8-(3-pyrrolidin-1-ylpropyl)-2,5-dihydro-4H-pyrazolo[4,3-c]quinolin-4-one]
17 | < 0.5 | CCn1c(=O)c2c(C)[nH]nc2c2cc(/C=C/CN(C)Cc3ccccc3)ccc21 [Compound I-45, 8-{(1E)-3-[benzyl(methyl)amino]prop-1-en-1-yl}-5-ethyl-3-methyl-2,5-dihydro-4H-pyrazolo[4,3-c]quinolin-4-one]
18 | < 0.5 | Cc1[nH]nc2c1c(=O)n(C)c1ccc(C#CCN)cc21 [Compound I-23, 8-(3-aminoprop-1-yn-1-yl)-3,5-dimethyl-2,5-dihydro-4H-pyrazolo[4,3-c]quinolin-4-one]
19 | < 0.5 | CCn1c(=O)c2c(C)[nH]nc2c2cc(C#CC(C)(C)NC(C)(C)C)ccc21 [Compound I-39, 8-[3-(tert-butylamino)-3-methylbut-1-yn-1-yl]-5-ethyl-3-methyl-2,5-dihydro-4H-pyrazolo[4,3-c]quinolin-4-one]
20 | < 0.5 | CCn1c(=O)c2c(C)[nH]nc2c2cc(-c3ccc(CN(C)C)s3)ccc21 [Compound I-50, 8-{5-[(dimethylamino)methyl]-2-thienyl}-5-ethyl-3-methyl-2,5-dihydro-4H-pyrazolo[4,3-c]quinolin-4-one]
21 | < 0.5 | Cc1[nH]nc2c1c(=O)n(CC(F)F)c1ccc(C#CCN3CCCC3)cc21 [Compound I-4, 5-(2,2-difluoroethyl)-3-methyl-8-(3-pyrrolidin-1-ylprop-1-yn-1-yl)-2,5-dihydro-4H-pyrazolo[4,3-c]quinolin-4-one]
22 | < 0.5 | CCCn1c(=O)c2c(C)[nH]nc2c2cc(-c3ccc(CN(C)C)s3)ccc21 [Compound I-56, 8-{5-[(dimethylamino)methyl]-2-thienyl}-3-methyl-5-propyl-2,5-dihydro-4H-pyrazolo[4,3-c]quinolin-4-one]
23 | < 0.5 | CCn1c(=O)c2c(C)[nH]nc2c2cc(C#CCN3CCOCC3)ccc21 [Compound I-7, 5-ethyl-3-methyl-8-(3-morpholin-4-ylprop-1-yn-1-yl)-2,5-dihydro-4H-pyrazolo[4,3-c]quinolin-4-one]
24 | < 0.5 | CCn1c(=O)c2c(C)[nH]nc2c2cc(C#CCN(C(C)C)C(C)C)ccc21 [Compound I-36, 8-[3-(diisopropylamino)prop-1-yn-1-yl]-5-ethyl-3-methyl-2,5-dihydro-4H-pyrazolo[4,3-c]quinolin-4-one]
25 | < 0.5 | CCn1c(=O)c2c(C)[nH]nc2c2cc(-c3ccc(CN4CCCC4)o3)ccc21 [Compound I-55, 5-ethyl-3-methyl-8-[5-(pyrrolidin-1-ylmethyl)-2-furyl]-2,5-dihydro-4H-pyrazolo[4,3-c]quinolin-4-one]
26 | < 0.5 | CCn1c(=O)c2c(C)[nH]nc2c2cc(/C=C/CN3[C@H](C)CC[C@@H]3C)ccc21 [Compound I-41, 8-{(1E)-3-[(2R,5S)-2,5-dimethylpyrrolidin-1-yl]prop-1-en-1-yl}-5-ethyl-3-methyl-2,5-dihydro-4H-pyrazolo[4,3-c]quinolin-4-one]
27 | < 0.5 | CCN(CC)C/C=C/c1ccc2c(c1)c1n[nH]c(C)c1c(=O)n2CC [Compound I-43, 8-[(1E)-3-(diethylamino)prop-1-en-1-yl]-5-ethyl-3-methyl-2,5-dihydro-4H-pyrazolo[4,3-c]quinolin-4-one]
28 | < 0.5 | CCn1c(=O)c2c(C)[nH]nc2c2cc(/C=C/CN3CCCC3)ccc21 [Compound I-25, 5-ethyl-3-methyl-8-[(1E)-3-pyrrolidin-1-ylprop-1-en-1-yl]-2,5-dihydro-4H-pyrazolo[4,3-c]quinolin-4-one]
